How the values were obtained:
Format in all cases: cell-based
SMARCA2 [1] = molecular target: T1, SMARCA2 (Homo sapiens, UniProt P51531); assay: MSD SMARCA2 degradation in A549 cell line; design: endogenous in cells; settings: for Dmax: A549, A549 cells; for Dmax / DC50: 24 h; for DC50 / SMARCA2 MSD A549 degradation 24 h: Average Dmax %: A549 cells; for DC50: read-out: SMARCA2 MSD A549 degradation 24 h: Average external-Abs DC50
Description: Example 53. MSD SMARCA2 Degradation in A549 Cell Line
Cells were seeded into 96-well plates (A549 cells: 2×10^4 cells/well/100 ul media) abd incubated overnight. The next day, 200 nl compound were added into the intermediate plate with Echo (Labcyte 550) from source plate containing a 3-fold serial dilution from top concentration of 1 mM. The culture medium was changed with 80 ul of fresh medium and 80 ul of 2× compound solution was added into the well to make a final concentration of 1000 nM, 333.3 nM, 111.1 nM, 37.04 nM, 12.35 nM, 4.115 nM, 1.372 nM, 0.457 nM, 0.152 nM and 0 nM (DMSO). The wells were mixed and then incubated for 24 hours. The media was aspirated from the cultures and 60 ul pre-chilled PIPA lysis buffer (Boston BioProducts BP-115D) with protease/phosphatase inhibitor (Roche 05892791001/Roche 04906837001) was added into the well to lyze the cells for 20 minutes at 4° C. The MSD plate (L15XA) was coated with 40 ul cell lysate and incubated at 4° C. overnight. The next day, the plate was washed three times with TBST (CST #9997S), 150 ul/well. The MSD plates was blocked with 150 ul blocking buffer per well and shaked for 1 hr at R^†, 600 rpm. The blocking buffer was 3% Blocker A (MSD, R93BA-4) in TBST. The MSD plate was washed three times with 150 ul/well of TBST and 25 ul/well of detection antibody (Rabbit anti-SMARCA2/BRM antibody, 100 μg/ml, ab223735) was added at final concentration of 1 ug/mi diluted in 1% o Blocking buffer and shaken for 1 hour at R^†, 600 rpm. The MSD plate was washed three times with 150 ul/well of TBST and 25 ul/well of SULFO-TAG anti-rabbit antibody (MSD, R32AB-1) was added at final concentration of 1 μg/ml diluted in […] Blocking buffer and shaken for 1 hour at R^†, 600 rpm. The MSD plate was washed three times with 150 ul/well of TBST and 150 ul/well of 2×MSD reading buffer diluted from 4× (MSD, R92TC-2) with water was added. Lastly, the MSD instrument was read.
(§1) The letter codes for SMARCA2 degradation potency (DC50) include: A (<100 nM), B (100-500 nM), C (501-1000 nM), and D (>1000 nM). The letter codes for the percentage of SMARCA2 degradation after 24 hours (Dmax % o) include: A (>90% o degradation), B (>70-90% o degradation), C (50-70% o degradation), and D (<50% degradation).

SMARCA4 = molecular target: T2, SMARCA4 (Homo sapiens, UniProt P51532); assay: SMARCA4 Western blot MV4-11 degradation; settings: for Dmax: MV4-11, MV4-11 cells, read-out: SMARCA4 MSD MV411 degradation 24 h: average Dmax %; for Dmax / DC50: 24 h; for DC50 / SMARCA4 MSD MV411 degradation 24 h: average Dmax %: MV4-11 cells; for DC50: read-out: SMARCA4 MSD MV411 degradation 24 h: Mean external-Abs DC50
T2 construct: SMARCA2 and SMARCA4 protein degradation in MV4-11 cells; endogenous in cells; host or cells: MV4-11
T2 sequence (P51532 whole entry): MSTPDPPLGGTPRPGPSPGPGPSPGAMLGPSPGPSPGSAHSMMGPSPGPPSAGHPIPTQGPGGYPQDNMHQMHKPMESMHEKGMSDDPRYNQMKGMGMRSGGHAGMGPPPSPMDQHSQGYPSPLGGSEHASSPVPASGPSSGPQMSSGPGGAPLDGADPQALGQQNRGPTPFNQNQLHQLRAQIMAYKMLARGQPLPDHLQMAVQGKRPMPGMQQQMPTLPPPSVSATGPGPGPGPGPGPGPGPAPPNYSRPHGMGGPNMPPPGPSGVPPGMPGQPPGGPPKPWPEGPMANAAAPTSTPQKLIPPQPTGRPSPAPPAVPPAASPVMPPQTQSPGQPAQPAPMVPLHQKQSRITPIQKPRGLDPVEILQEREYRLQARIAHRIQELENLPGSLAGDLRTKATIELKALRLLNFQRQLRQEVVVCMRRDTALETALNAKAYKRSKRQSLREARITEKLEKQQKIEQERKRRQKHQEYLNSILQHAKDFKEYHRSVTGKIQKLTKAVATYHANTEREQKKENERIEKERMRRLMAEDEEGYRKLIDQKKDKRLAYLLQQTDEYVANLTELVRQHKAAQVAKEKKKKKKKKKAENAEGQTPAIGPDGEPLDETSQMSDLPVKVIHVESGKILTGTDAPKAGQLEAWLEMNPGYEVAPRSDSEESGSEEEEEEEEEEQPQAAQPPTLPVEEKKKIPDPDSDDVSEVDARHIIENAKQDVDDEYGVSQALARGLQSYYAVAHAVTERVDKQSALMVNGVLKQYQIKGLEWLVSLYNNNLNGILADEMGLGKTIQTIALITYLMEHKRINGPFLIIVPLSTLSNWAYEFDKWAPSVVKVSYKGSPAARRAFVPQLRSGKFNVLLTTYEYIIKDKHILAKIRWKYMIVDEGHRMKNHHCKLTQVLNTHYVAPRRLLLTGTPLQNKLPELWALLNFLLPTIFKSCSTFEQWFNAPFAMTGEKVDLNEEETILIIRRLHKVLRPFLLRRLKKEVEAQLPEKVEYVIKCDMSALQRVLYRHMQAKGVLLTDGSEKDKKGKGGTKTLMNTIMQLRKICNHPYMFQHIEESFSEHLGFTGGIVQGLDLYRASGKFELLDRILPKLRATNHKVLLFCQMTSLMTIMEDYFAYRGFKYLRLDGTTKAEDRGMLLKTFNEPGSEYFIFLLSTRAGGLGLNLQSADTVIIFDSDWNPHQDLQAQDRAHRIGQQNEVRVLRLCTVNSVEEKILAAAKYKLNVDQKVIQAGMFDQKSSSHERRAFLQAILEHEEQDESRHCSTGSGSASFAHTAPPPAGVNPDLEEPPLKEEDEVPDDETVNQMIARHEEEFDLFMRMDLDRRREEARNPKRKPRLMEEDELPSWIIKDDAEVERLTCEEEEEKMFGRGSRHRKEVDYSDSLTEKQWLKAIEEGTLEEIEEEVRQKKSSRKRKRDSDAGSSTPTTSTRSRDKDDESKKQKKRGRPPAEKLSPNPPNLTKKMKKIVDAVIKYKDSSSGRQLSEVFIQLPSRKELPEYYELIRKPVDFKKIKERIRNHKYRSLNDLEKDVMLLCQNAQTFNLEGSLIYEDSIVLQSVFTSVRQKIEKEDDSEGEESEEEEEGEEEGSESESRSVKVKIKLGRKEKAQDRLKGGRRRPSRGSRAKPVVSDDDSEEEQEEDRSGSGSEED
Description: Example 54. SMARCA2 and SMARCA 4 Western Blot MV4-11 Degradation
Cells were seeded into 6-well plates (MV4-11: 4×10^6 cells/well/1 ml) and 1 ml of 2× compound solution was added into the well to make the final concentration and the plates were mixed well and incubated for 24 hours (No cytotoxicity was observed). The cell were collected with media and spun at 3000 rpm for 5 minutes. The supernatant was aspirated and the well and the cells were washed with cold PBS once and combined for centrifugation again; the supernatant aspirated again. 200 ul pre-chilled RIPA lysis buffer (Boston BioProducts BP-115D) with protease/phosphatase inhibitor (Roche 05892791001/Roche 04906837001) was directly added into the tube to lyze the cells for 20 minutes on ice. The cell lysate were collected into EP tubes and spun at 13000 rpm for 20 minutes and 72 ul supernatant was transferred to a fresh EP tube containing 18 ul of 5× loading buffer (Beyotime Bio P0015) to make the loading samples. The samples were heated to 100° C. for 10 minutes and cooled to RT and microcentrifuged. 20 ul of samples were loaded onto SDS-PAGE gel (Novex, WG1402BOX) and the gel was run at 80 V for 20 minutes and 120 V for 1.5 hours. The samples were electrotransfer to a NC membrane using wet-transfer method with 250 mA for 2.5 hours. The membrane was blocked with LICOR blocking buffer (LI-COR, 927-50000) for 1 hour. The membrane was washed three times with TBST (CST #9997S), 5 minutes each. Incubation was performed with primary antibody prepared in blocking buffer with 0.1% Tween-20 (Solarbio, P8220) at 4° C. overnight (Anti-SMARCA2/BRM antibody (ab15597) 1:500; Anti-BRG1 antibody [EPR3912] (ab108318) 1:1000; Rabbit anti-Baf180 antibody [EPR15860] (Abcam, ab196022) 1:1000; mouse anti-beta-Actin (8H10D10) (CST #3700) 1:10000). The membrane was washed three times with TBST, 5 minutes each. Incubation with secondary antibody was performed for 1 hour at RT (anti-rabbit IgG (Licor, 926-32211) 1:5000; anti-mouse IgG (LI-COR, 926-68070) 1:5000). The membrane was washed three times with TBST, 5 minutes each and lastly the LiCOR was read.
as §1, with “SMARCA” for “SMARCA2”, “%)” for “% o)”, “(>90%” for “(>90% o”, “(>70-90%” for “(>70-90% o”, “(50-70%” for “(50-70% o”

SMARCA2 [2] = molecular target: T1, SMARCA2; assay: SMARCA2 Western blot MV4-11 degradation; design: SMARCA2 and SMARCA4 protein degradation in MV4-11 cells; endogenous in cells; host or cells: MV4-11; settings: for Dmax: MV4-11, MV4-11 cells, read-out: SMARCA2 MSD MV411 degradation 24 h: average Dmax %; for Dmax / DC50: 24 h; for DC50 / SMARCA2 MSD MV411 degradation 24 h: average Dmax %: MV4-11 cells; for DC50: read-out: SMARCA2 MSD MV411 degradation 24 h: Mean external-Abs DC50

T1 sequence (P51531 whole entry): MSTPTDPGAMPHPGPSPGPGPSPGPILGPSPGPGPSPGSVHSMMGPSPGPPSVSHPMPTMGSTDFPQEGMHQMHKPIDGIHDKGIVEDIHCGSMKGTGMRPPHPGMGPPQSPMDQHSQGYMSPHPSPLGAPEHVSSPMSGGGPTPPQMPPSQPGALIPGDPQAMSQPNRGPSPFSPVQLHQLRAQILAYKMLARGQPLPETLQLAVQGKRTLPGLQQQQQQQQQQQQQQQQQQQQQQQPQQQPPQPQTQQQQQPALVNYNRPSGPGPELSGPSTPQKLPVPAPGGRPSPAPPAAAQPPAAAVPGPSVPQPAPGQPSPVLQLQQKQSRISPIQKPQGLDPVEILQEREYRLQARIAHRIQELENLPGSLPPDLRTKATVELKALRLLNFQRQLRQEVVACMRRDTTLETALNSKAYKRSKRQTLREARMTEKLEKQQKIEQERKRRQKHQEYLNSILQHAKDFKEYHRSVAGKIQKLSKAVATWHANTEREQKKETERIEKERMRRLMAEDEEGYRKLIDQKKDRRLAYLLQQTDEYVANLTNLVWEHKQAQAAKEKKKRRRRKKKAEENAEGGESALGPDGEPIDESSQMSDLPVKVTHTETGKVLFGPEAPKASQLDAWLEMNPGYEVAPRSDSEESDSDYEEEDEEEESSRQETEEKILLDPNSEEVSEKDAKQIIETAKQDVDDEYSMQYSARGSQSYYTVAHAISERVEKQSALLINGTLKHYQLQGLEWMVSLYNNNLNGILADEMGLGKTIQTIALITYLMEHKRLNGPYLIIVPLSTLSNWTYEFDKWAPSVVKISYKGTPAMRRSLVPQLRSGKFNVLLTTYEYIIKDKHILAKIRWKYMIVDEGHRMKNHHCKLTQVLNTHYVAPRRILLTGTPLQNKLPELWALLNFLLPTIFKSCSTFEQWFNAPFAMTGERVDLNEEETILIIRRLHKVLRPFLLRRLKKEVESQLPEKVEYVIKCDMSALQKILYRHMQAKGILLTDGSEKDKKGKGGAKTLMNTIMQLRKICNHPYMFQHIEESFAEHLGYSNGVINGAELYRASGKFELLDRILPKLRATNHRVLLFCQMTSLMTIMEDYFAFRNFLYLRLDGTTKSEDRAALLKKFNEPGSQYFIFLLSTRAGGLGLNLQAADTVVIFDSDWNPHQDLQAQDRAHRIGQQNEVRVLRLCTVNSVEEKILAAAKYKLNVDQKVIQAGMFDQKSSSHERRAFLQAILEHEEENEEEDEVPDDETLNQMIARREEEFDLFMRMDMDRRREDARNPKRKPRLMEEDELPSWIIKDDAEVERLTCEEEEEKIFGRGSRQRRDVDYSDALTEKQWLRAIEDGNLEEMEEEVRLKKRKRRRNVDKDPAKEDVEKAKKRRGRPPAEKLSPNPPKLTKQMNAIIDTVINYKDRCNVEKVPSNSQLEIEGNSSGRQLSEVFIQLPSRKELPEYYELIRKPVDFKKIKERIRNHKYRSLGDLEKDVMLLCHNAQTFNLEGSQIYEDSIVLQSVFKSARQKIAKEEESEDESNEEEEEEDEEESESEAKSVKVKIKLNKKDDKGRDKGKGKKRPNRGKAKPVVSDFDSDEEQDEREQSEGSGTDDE

| SMILES | Dmax (SMARCA2 [1]) | DC50 (SMARCA2 [1]) | Dmax (SMARCA4) | DC50 (SMARCA4) | Dmax (SMARCA2 [2]) | DC50 (SMARCA2 [2]) | SMARCA2 MSD A549 degradation 24 h: Average Dmax % (SMARCA2 [1]) | SMARCA4 MSD MV411 degradation 24 h: average Dmax % (SMARCA4) | SMARCA2 MSD MV411 degradation 24 h: average Dmax % (SMARCA2 [2]) |
| --- | --- | --- | --- | --- | --- | --- | --- | --- | --- |
| Cc1ncsc1-c1ccc(CNC(=O)[C@@H]2C[C@@H](O)CN2C(=O)[C@@H](NC(=O)[C@H]2CC3(C2)C[C@H](N2CCC(c4ccc(N5C6CCC5CN(c5cc(-c7ccccc7O)nnc5N)C6)cc4)CC2)C3)C(C)(C)C)cn1 (stereo partly drawn) [I-27, (2S,4R)-1-((2S)-2-(6-(4-(4-(3-(3-amino-6-(2-hydroxyphenyl)pyridazin-4-yl)-3,8-diazabicyclo[3.2.1]octan-8-yl)phenyl)piperidin-1-yl)spiro[3.3]heptane-2-carboxamido)-3,3-dimethylbutanoyl)-4-hydroxy-N-((6-(4-methylthiazol-5-yl)pyridin-3-yl)methyl)pyrrolidine-2-carboxamide] | < 50% | > 1 µM | < 50% | > 1 µM | < 50% | 0.1 to 0.5 µM |  |  |  |
| Cc1ncsc1-c1ccc(CNC(=O)[C@@H]2C[C@@H](O)CN2C(=O)[C@H](c2cc(OCCCN3CCC(c4cnc(N5C6CCC5CN(c5cc(-c7ccccc7O)nnc5N)C6)nc4)CC3)no2)C(C)C)cc1 [I-52, (2S,4R)-1-((2S)-2-(3-(3-(4-(2-(3-(3-amino-6-(2-hydroxyphenyl)pyridazin-4-yl)-3,8-diazabicyclo[3.2.1]octan-8-yl)pyrimidin-5-yl)piperidin-1-yl)propoxy)isoxazol-5-yl)-3-methylbutanoyl)-4-hydroxy-N-(4-(4-methylthiazol-5-yl)benzyl)pyrrolidine-2-carboxamide] | > 90% | < 0.1 µM | > 90% | < 0.1 µM | > 90% | < 0.1 µM |  |  |  |
| Cc1n[nH]c(C)c1-c1ccc(CNC(=O)[C@@H]2C[C@@H](O)CN2C(=O)[C@@H](NC(=O)[C@H]2CC3(C2)C[C@H](N2CCC(c4cnc(N5C6CCC5CN(c5cc(-c7ccccc7O)nnc5N)C6)nc4)CC2)C3)C(C)(C)C)cc1 (stereo partly drawn) [I-31, (2S,4R)-1-((2S)-2-(6-(4-(2-(3-(3-amino-6-(2-hydroxyphenyl)pyridazin-4-yl)-3,8-diazabicyclo[3.2.1]octan-8-yl)pyrimidin-5-yl)piperidin-1-yl)spiro[3.3]heptane-2-carboxamido)-3,3-dimethylbutanoyl)-N-(4-(3,5-dimethyl-1H-pyrazol-4-yl)benzyl)-4-hydroxypyrrolidine-2-carboxamide] | < 50% |  | < 50% | > 1 µM | 50 to 70% | < 0.1 µM |  |  |  |
| Cc1ncsc1-c1ccc(CNC(=O)[C@@H]2C[C@@H](O)CN2C(=O)[C@@H](NC(=O)[C@H]2CC3(C2)C[C@H](N2CCC(c4ccc(N5C6CCC5CN(c5cc(-c7ccccc7O)nnc5N)C6)cc4)CC2)C3)C(C)(C)C)nc1 (stereo partly drawn) [I-23, (2S,4R)-1-((2S)-2-(6-(4-(4-(3-(3-amino-6-(2-hydroxyphenyl)pyridazin-4-yl)-3,8-diazabicyclo[3.2.1]octan-8-yl)phenyl)piperidin-1-yl)spiro[3.3]heptane-2-carboxamido)-3,3-dimethylbutanoyl)-4-hydroxy-N-((5-(4-methylthiazol-5-yl)pyridin-2-yl)methyl)pyrrolidine-2-carboxamide] | < 50% | > 1 µM | < 50% | > 1 µM | < 50% | 0.1 to 0.5 µM |  |  |  |
| Cc1ncsc1-c1ccc(C2(NC(=O)[C@@H]3C[C@@H](O)CN3C(=O)[C@@H](NC(=O)[C@H]3CC4(C3)C[C@H](N3CCC(c5cnc(N6C7CCC6CN(c6cc(-c8ccccc8O)nnc6N)C7)nc5)CC3)C4)C(C)(C)C)CC2)cc1 (single isomer, unassigned) [I-4] |  | 0.1 to 0.5 µM |  | < 0.1 µM |  | < 0.1 µM | A (A (>90% o degradation)) | A (A (>90% degradation)) | A (A (>90% degradation)) |
| Cc1ncsc1-c1ccc(CNC(=O)[C@@H]2C[C@@H](O)CN2C(=O)[C@@H](NC(=O)[C@H]2CC3(C2)C[C@H](N2CC4(CN(c5cnc(N6C7CCC6CN(c6cc(-c8ccccc8O)nnc6N)C7)nc5)C4)C2)C3)C(C)(C)C)cc1 (stereo partly drawn) [I-11, (2S,4R)-1-((2S)-2-(6-(6-(2-(3-(3-amino-6-(2-hydroxyphenyl)pyridazin-4-yl)-3,8-diazabicyclo[3.2.1]octan-8-yl)pyrimidin-5-yl)-2,6-diazaspiro[3.3]heptan-2-yl)spiro[3.3]heptane-2-carboxamido)-3,3-dimethylbutanoyl)-4-hydroxy-N-(4-(4-methylthiazol-5-yl)benzyl)pyrrolidine-2-carboxamide] | 70 to 90% | 0.1 to 0.5 µM | < 50% | > 1 µM | 70 to 90% | < 0.1 µM |  |  |  |
| Cc1n[nH]c(C)c1-c1ccc(CNC(=O)[C@@H]2C[C@@H](O)CN2C(=O)[C@@H](NC(=O)[C@H]2CC3(C2)C[C@H](N2CCC(c4cnc(N5C6CCC5CN(c5cc(-c7ccccc7O)nnc5N)C6)nc4)CC2)C3)C(C)(C)C)cc1 (stereo partly drawn) [I-32, (2S,4R)-1-((2S)-2-(6-(4-(2-(3-(3-amino-6-(2-hydroxyphenyl)pyridazin-4-yl)-3,8-diazabicyclo[3.2.1]octan-8-yl)pyrimidin-5-yl)piperidin-1-yl)spiro[3.3]heptane-2-carboxamido)-3,3-dimethylbutanoyl)-N-(4-(3,5-dimethyl-1H-pyrazol-4-yl)benzyl)-4-hydroxypyrrolidine-2-carboxamide] |  |  |  | > 1 µM |  | 0.1 to 0.5 µM | D (D (<50% degradation)) | D (D (<50% degradation)) | D (D (<50% degradation)) |
